This passage reports IC50 results from patent publication US12668576B2, “Pyrazolamide derivative, preparation method therefor, and application thereof” (SHENZHEN ZHONGGE BIOLOGICAL TECHNOLOGY CO., LTD., priority 2021, dated 2026).

In this test the target is T1, EP4 receptor (Homo sapiens, UniProt P35408).
T1 construct: expressed in transfected cells; host or cells: Flp-In CHO cells (Flpin-CHO-EP4)
Put plainly: Antagonist activity against EP4 receptor by cAMP assay. The format is cell-based. Conditions: Flpin-CHO-EP4 cells, PGE2 stimulation, cAMP readout; starting concentration 5 μM, dilution factor 4. The method, then:
Eu-CAMP tracer (1/50) was diluted with a lysis buffer and 10 μL was added to per well of the detection plate. Ulight-anti-CAMP (1/150) was diluted with the lysis buffer and 10 μL was added to per well of the detection plate, and incubated at room temperature for 1 h.
In general terms: Changes in cAMP serve as a functional read-out for many G protein-coupled receptors.

T1 sequence (P35408 whole entry): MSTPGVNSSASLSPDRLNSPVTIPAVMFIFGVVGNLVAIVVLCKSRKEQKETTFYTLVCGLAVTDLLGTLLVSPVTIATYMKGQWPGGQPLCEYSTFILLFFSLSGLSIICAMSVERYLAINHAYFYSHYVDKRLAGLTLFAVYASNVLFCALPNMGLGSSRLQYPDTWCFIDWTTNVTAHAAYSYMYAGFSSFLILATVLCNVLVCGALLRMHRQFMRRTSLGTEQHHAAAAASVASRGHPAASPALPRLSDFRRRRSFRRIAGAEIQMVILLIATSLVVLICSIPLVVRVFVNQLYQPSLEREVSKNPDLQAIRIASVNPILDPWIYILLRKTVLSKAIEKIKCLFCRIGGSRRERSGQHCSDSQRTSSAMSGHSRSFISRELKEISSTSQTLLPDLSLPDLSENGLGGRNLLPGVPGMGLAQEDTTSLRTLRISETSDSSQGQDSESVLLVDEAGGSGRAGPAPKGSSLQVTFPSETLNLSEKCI

For the compound `C[C@H](NC(=O)c1c(C(F)F)nn(C)c1Oc1cccc(S(F)(F)(F)(F)F)c1)c1ccc(C(=O)O)cc1` [Example 1, 4-(1-(3-(difluoromethyl)-1-methyl-5-(3-(pentafluorothio)phenoxy)-1H-pyrazole-4-carboxamido)ethyl)benzoic acid], the IC50 (usually the midpoint of a concentration-inhibition curve) came out at 6.59 nM.
